Source: the supplement of paper PMC13207355
Structures can show the parent of a compound that is named as a salt.

Experiments:
Conditions in all cases: exposure time: 72 h
E34 [1] = patient-derived glioblastoma stem cells of proneural subtype; assay: phenotypic distance (Euclidean, principal components) from DMSO controls (arbitrary units); higher = stronger morphological change
E31 [2] = patient-derived glioblastoma stem cells of proneural subtype; assay: as above
FT3469 [3] = normal neural stem cell line; assay: as above
E28 [4] = patient-derived glioblastoma stem cells of classical subtype; assay: as above
E13 [5] = patient-derived glioblastoma stem cells of classical subtype; assay: as above
E57 [6] = patient-derived glioblastoma stem cells of mesenchymal subtype; assay: as above
E21 [7] = patient-derived glioblastoma stem cells of mesenchymal subtype; assay: as above
E34 [8] = assay: surviving fraction (nuclei count normalised to DMSO); higher = more cells surviving (less toxic)
E31 [9] = assay: as above
FT3469 [10] = assay: as above
E28 [11] = assay: as above
E13 [12] = assay: as above
E57 [13] = assay: as above
E21 [14] = assay: as above
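Throughout, for phenotypic distance (Euclidean, principal components) from DMSO controls: cell Painting imaging in 384-well plates, CellProfiler features reduced to at least 20 principal components, Euclidean distance versus same-plate DMSO vehicle wells (0.1% v/v), median over six images per well.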
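Throughout, for surviving fraction (nuclei count normalised to DMSO): nuclei counted by high-content imaging of Hoechst-stained cells in laminin-coated 384-well plates, relative to 0.1% DMSO vehicle wells, with staurosporine as cell-death control.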

Oc1ccc(OCc2ccccc2)cc1 [Monobenzone]
Conditions | phenotypic distance | surviving fraction
E13 [5], 4.1 nM | 0.73 | –
E13 [5], 12.3 nM | 0.686 | –
E13 [5], 37 nM | 0.829 | –
E13 [5], 111.1 nM | 0.608 | –
E13 [5], 333.3 nM | 0.563 | –
E13 [5], 1000 nM | 0.694 | –
E13 [5], 3000 nM | 1.62 | –
E13 [12], 4.1 nM | – | 1.02
E13 [12], 12.3 nM | – | 1.11
E13 [12], 37 nM | – | 0.916
E13 [12], 111.1 nM | – | 1.04
E13 [12], 333.3 nM | – | 0.962
E13 [12], 1000 nM | – | 1.06
E13 [12], 3000 nM | – | 0.738
E21 [7], 4.1 nM | 0.533 | –
E21 [7], 12.3 nM | 0.297 | –
E21 [7], 37 nM | 0.463 | –
E21 [7], 111.1 nM | 0.324 | –
E21 [7], 333.3 nM | 0.511 | –
E21 [7], 1000 nM | 0.562 | –
E21 [7], 3000 nM | 1.35 | –
E21 [14], 4.1 nM | – | 1.01
E21 [14], 12.3 nM | – | 1.02
E21 [14], 37 nM | – | 0.985
E21 [14], 111.1 nM | – | 0.974
E21 [14], 333.3 nM | – | 1.01
E21 [14], 1000 nM | – | 0.951
E21 [14], 3000 nM | – | 0.932
E28 [4], 4.1 nM | 0.962 | –
E28 [4], 12.3 nM | 0.487 | –
E28 [4], 37 nM | 0.802 | –
E28 [4], 111.1 nM | 0.466 | –
E28 [4], 333.3 nM | 0.474 | –
E28 [4], 1000 nM | 0.692 | –
E28 [4], 3000 nM | 1.42 | –
E28 [11], 4.1 nM | – | 1.09
E28 [11], 12.3 nM | – | 1.17
E28 [11], 37 nM | – | 1.12
E28 [11], 111.1 nM | – | 1.02
E28 [11], 333.3 nM | – | 1.04
E28 [11], 1000 nM | – | 1.04
E28 [11], 3000 nM | – | 0.875
E31 [2], 4.1 nM | 0.6 | –
E31 [2], 12.3 nM | 0.685 | –
E31 [2], 37 nM | 0.704 | –
E31 [2], 111.1 nM | 0.686 | –
E31 [2], 333.3 nM | 0.51 | –
E31 [2], 1000 nM | 0.575 | –
E31 [2], 3000 nM | 1.87 | –
E31 [9], 4.1 nM | – | 1.17
E31 [9], 12.3 nM | – | 1.1
E31 [9], 37 nM | – | 1.24
E31 [9], 111.1 nM | – | 1.19
E31 [9], 333.3 nM | – | 1.04
E31 [9], 1000 nM | – | 1.06
E31 [9], 3000 nM | – | 0.603
E34 [1], 4.1 nM | 0.726 | –
E34 [1], 12.3 nM | 0.858 | –
E34 [1], 37 nM | 0.945 | –
E34 [1], 111.1 nM | 0.661 | –
E34 [1], 333.3 nM | 0.606 | –
E34 [1], 1000 nM | 0.28 | –
E34 [1], 3000 nM | 0.624 | –
E34 [8], 4.1 nM | – | 1.13
E34 [8], 12.3 nM | – | 0.972
E34 [8], 37 nM | – | 0.966
E34 [8], 111.1 nM | – | 1.13
E34 [8], 333.3 nM | – | 0.984
E34 [8], 1000 nM | – | 1.12
E34 [8], 3000 nM | – | 1.07
E57 [6], 4.1 nM | 0.522 | –
E57 [6], 12.3 nM | 0.58 | –
E57 [6], 37 nM | 1.19 | –
E57 [6], 111.1 nM | 1.86 | –
E57 [6], 333.3 nM | 0.673 | –
E57 [6], 1000 nM | 0.736 | –
E57 [6], 3000 nM | 3.91 | –
E57 [13], 4.1 nM | – | 1.07
E57 [13], 12.3 nM | – | 1.06
E57 [13], 37 nM | – | 1.14
E57 [13], 111.1 nM | – | 1.05
E57 [13], 333.3 nM | – | 0.979
E57 [13], 1000 nM | – | 0.963
E57 [13], 3000 nM | – | 0.842
FT3469 [3], 4.1 nM | 1.23 | –
FT3469 [3], 12.3 nM | 0.456 | –
FT3469 [3], 37 nM | 0.649 | –
FT3469 [3], 111.1 nM | 0.576 | –
FT3469 [3], 333.3 nM | 1.04 | –
FT3469 [3], 1000 nM | 0.884 | –
FT3469 [3], 3000 nM | 1.07 | –
FT3469 [10], 4.1 nM | – | 1.35
FT3469 [10], 12.3 nM | – | 1.12
FT3469 [10], 37 nM | – | 1.14
FT3469 [10], 111.1 nM | – | 0.963
FT3469 [10], 333.3 nM | – | 1.02
FT3469 [10], 1000 nM | – | 0.999
FT3469 [10], 3000 nM | – | 0.689

CN1[C@@H]2CC[C@H]1CC(OC(=O)c1c[nH]c3ccccc13)C2 (stereo partly specified) [3-Tropanyl-indole-3-carboxylate hydrochloride]
Conditions | phenotypic distance | surviving fraction
E13 [5], 4.1 nM | 0.681 | –
E13 [5], 12.3 nM | 1.03 | –
E13 [5], 37 nM | 0.87 | –
E13 [5], 111.1 nM | 0.726 | –
E13 [5], 333.3 nM | 0.624 | –
E13 [5], 1000 nM | 1.01 | –
E13 [5], 3000 nM | 1.66 | –
E13 [12], 4.1 nM | – | 1.02
E13 [12], 12.3 nM | – | 0.939
E13 [12], 37 nM | – | 0.913
E13 [12], 111.1 nM | – | 0.975
E13 [12], 333.3 nM | – | 0.828
E13 [12], 1000 nM | – | 0.931
E13 [12], 3000 nM | – | 0.699
E21 [7], 4.1 nM | 0.866 | –
E21 [7], 12.3 nM | 0.871 | –
E21 [7], 37 nM | 0.74 | –
E21 [7], 111.1 nM | 0.815 | –
E21 [7], 333.3 nM | 0.781 | –
E21 [7], 1000 nM | 0.853 | –
E21 [7], 3000 nM | 1.33 | –
E21 [14], 4.1 nM | – | 0.945
E21 [14], 12.3 nM | – | 0.965
E21 [14], 37 nM | – | 0.912
E21 [14], 111.1 nM | – | 1
E21 [14], 333.3 nM | – | 0.935
E21 [14], 1000 nM | – | 0.929
E21 [14], 3000 nM | – | 0.821
E28 [4], 4.1 nM | 1.03 | –
E28 [4], 12.3 nM | 0.793 | –
E28 [4], 37 nM | 0.737 | –
E28 [4], 111.1 nM | 0.922 | –
E28 [4], 333.3 nM | 0.691 | –
E28 [4], 1000 nM | 0.845 | –
E28 [4], 3000 nM | 1.24 | –
E28 [11], 4.1 nM | – | 1.25
E28 [11], 12.3 nM | – | 0.858
E28 [11], 37 nM | – | 1.06
E28 [11], 111.1 nM | – | 0.728
E28 [11], 333.3 nM | – | 0.943
E28 [11], 1000 nM | – | 0.894
E28 [11], 3000 nM | – | 0.734
E31 [2], 4.1 nM | 0.406 | –
E31 [2], 12.3 nM | 0.329 | –
E31 [2], 37 nM | 0.778 | –
E31 [2], 111.1 nM | 0.924 | –
E31 [2], 333.3 nM | 1.07 | –
E31 [2], 1000 nM | 0.762 | –
E31 [2], 3000 nM | 0.758 | –
E31 [9], 4.1 nM | – | 0.893
E31 [9], 12.3 nM | – | 0.975
E31 [9], 37 nM | – | 0.905
E31 [9], 111.1 nM | – | 0.978
E31 [9], 333.3 nM | – | 1.17
E31 [9], 1000 nM | – | 0.945
E31 [9], 3000 nM | – | 0.906
E34 [1], 4.1 nM | 1.09 | –
E34 [1], 12.3 nM | 0.577 | –
E34 [1], 37 nM | 0.765 | –
E34 [1], 111.1 nM | 1.86 | –
E34 [1], 333.3 nM | 0.741 | –
E34 [1], 1000 nM | 1.59 | –
E34 [1], 3000 nM | 1.13 | –
E34 [8], 4.1 nM | – | 0.923
E34 [8], 12.3 nM | – | 0.963
E34 [8], 37 nM | – | 1.2
E34 [8], 111.1 nM | – | 0.942
E34 [8], 333.3 nM | – | 0.904
E34 [8], 1000 nM | – | 0.885
E34 [8], 3000 nM | – | 0.9
E57 [6], 4.1 nM | 0.753 | –
E57 [6], 12.3 nM | 0.699 | –
E57 [6], 37 nM | 0.615 | –
E57 [6], 111.1 nM | 0.914 | –
E57 [6], 333.3 nM | 0.614 | –
E57 [6], 1000 nM | 1.06 | –
E57 [6], 3000 nM | 1.1 | –
E57 [13], 4.1 nM | – | 0.904
E57 [13], 12.3 nM | – | 0.959
E57 [13], 37 nM | – | 1.02
E57 [13], 111.1 nM | – | 1.02
E57 [13], 333.3 nM | – | 1.02
E57 [13], 1000 nM | – | 1.04
E57 [13], 3000 nM | – | 0.94
FT3469 [3], 4.1 nM | 0.942 | –
FT3469 [3], 12.3 nM | 0.464 | –
FT3469 [3], 37 nM | 2.87 | –
FT3469 [3], 111.1 nM | 0.576 | –
FT3469 [3], 333.3 nM | 0.57 | –
FT3469 [3], 1000 nM | 0.775 | –
FT3469 [3], 3000 nM | 0.616 | –
FT3469 [10], 4.1 nM | – | 1.11
FT3469 [10], 12.3 nM | – | 0.924
FT3469 [10], 37 nM | – | 1.07
FT3469 [10], 111.1 nM | – | 1.06
FT3469 [10], 333.3 nM | – | 0.843
FT3469 [10], 1000 nM | – | 0.927
FT3469 [10], 3000 nM | – | 0.855
